In brackets after ≈: the same amount, converted by molar mass. Where two headings read alike, the source gives them in different places.
Columns and labels:
[1] = half life of AFQ056 used to set the wash out period; conditions: human, in vivo, oral; 50 mg and 100 mg doses
From the text: The study has a 3-Latin, 5-sequences×5-period open-label design that is suitable for comparing the pharmacokinetics including relative bioavailability of three modified release formulations of AFQ056. The immediate release capsule formulation (size O, IR) is used as a reference to enable comparisons with data obtained in previously completed trials. This study design allows the comparison of pharmacokinetic profile of AFQ056 from three modified release (MR) formulations relative to the IR formulation under fasted conditions, and to assess the food effect on the pharmacokinetics of the three MR forms. Latin-square design is selected as it offers maximum precision of comparison across different treatments with minimum number of study subjects. The cross-over design permits investigation of all five treatment conditions within each subject and is used to account for interindividual variability. […] Sampling for 72 hours post dose is considered sufficient for characterizing the PK profiles of all formulations, including the MR forms.

[2] = test system: L-dopa induced dyskinesias; assay: earlier studies of IR AFQ056 in Parkinson's disease patients; assay type: in vivo, human; conditions: IR formulation
From the text: AFQ056 has previously been formulated as a hard gelatin capsule and as a powder for oral suspension, both with immediate release (IR) properties. […] The IR formulation used in these studies required twice-daily dosing.

[3] = distribution coefficient Log P of drug substance; assay type: physicochemical
Procedure: AFQ056 is a chiral molecule with 3 asymmetric carbon atoms and has a melting point of about 115° C. One single polymorph has been identified.

[4] = solubility in water and in ethanol at room temperature; assay type: physicochemical; conditions: for solubility: room temperature
From the text: Particle size distribution is also an important factor influencing the dissolution of a drug substance and is known to influence the drug release from matrix tablets.

[5] = solubility of AFQ056 at 37° C. in different aqueous media (FIG. 2); assay type: physicochemical; conditions: pure aqueous solution with raising ethanol levels
Procedure: FIG. 2 graphically depicts the solubility of AFQ056 at 37° C. in different aqueous media. […] Up to the amount of about 20% of ethanol in the solutions, the LDAO (Lauryldimethylamine N-oxide) in water solution and the water-ethanol solution show a different solubility pattern of AFQ056. In the presence of about 40% ethanol in the solutions, both the LDAO in water solution and the water-ethanol solution show a similar solubility for AFQ056.
The solubility pattern of AFQ056 was examined ([…]). […] In pure aqueous solutions the solubility of AFQ056 steadily increases with raising ethanol concentrations. The solubility pattern of AFQ056 in a LDAO water-ethanol solution is distinct from the solubility pattern of AFQ056 in a pure aqueous solution only up to an amount of 20% ethanol present in the solution. […] Immediate release forms of AFQ056 have therefore the inherent risk of dose dumping and can create severe consequences for the patient if ethanol-containing beverages are consumed in parallel. Particle size distribution is also an important factor influencing the dissolution of a drug substance and is known to influence the drug release from matrix tablets.

[6] = Roberts et al., cited from earlier work

half-life [1]	logP [3]	solubility ([4]; organic solvent or mixture, ethanol, read-out: Solubility in ethanol)	solubility in organic solvents (in words) ([4]; organic solvents such as ethanol)	solubility in water (in words) ([4]; water)	solubility ([4]; water, read-out: Solubility in water)	solubility with raising ethanol levels [5]	Compound	effect on L-dopa induced dyskinesias ([2]; Parkinson's disease patients)	effect on underlying Parkinsonian motor symptoms ([2]; Parkinson's disease patients)	most frequent adverse events ([2]; patients)	Solubility in ethanol ([6]; ethanol)	Solubility in water ([6]; water)
7 to 17 h	4.7	~53000 µg/mL (≈ 169 mM)	soluble	hardly soluble	~20 µg/mL (≈ 0.0638 mM)	steadily increasing solubility	COC(=O)N1CC[C@@H]2[C@H]1CCC[C@@]2(O)C#Cc1cccc(C)c1 [AFQ056, (−)-(3aR,4S,7aR)-Octahydro-4-hydroxy-4-[(3-methylphenyl)ethynyl]-1H-indole-1-carboxylic acid methyl ester]	reduction in L-dopa induced dyskinesias	without inducing any clinically or statistically significant worsening	dizziness, dyskinesia, nausea, fatigue, and hallucinations	–	–
–	–	–	–	–	–	–	CC(=O)Oc1ccccc1C(=O)O [Aspirin]	–	–	–	about 237 mg/ml	8400 µg/mL (≈ 46.6 mM)

From US12653807B2, “Modified release formulation for (-)-(3AR,4S,7AR)-4-hydroxy-4-m-tolylethynyl-octahydro-indole-1-carboxylic acid methyl ester” (NOVARTIS AG, priority 2013, dated 2026)
